These results are taken from article PMC12781075, “Crosstalk between arachidonic acid metabolism and glycolysis drives integrated metabolic-inflammatory reprogramming in macrophages” (International Journal of Biological Sciences, 2026).

The term pKd denotes −log10 of the Kd, conventionally taken in molar units. A high value points to a low Kd.

Test [1] addresses T1, pyruvate kinase M2 (PKM2) (Mus musculus, UniProt P52480).
T1 construct: gene Pkm; recombinant mouse PKM2 (pET-28a, E. coli)
Nature of the test: ITC; LC/MS/MS peptide mapping of the adduct; CETSA and DARTS in lysates. The class given is binding.

The next test deals with T2, PKM2(C49S) (Mus musculus, UniProt P52480, C49S).
T2 construct: gene Pkm; recombinant mouse PKM2 C49S (pET-28a, E. coli)
T2 sequence (P52480 whole entry C49S): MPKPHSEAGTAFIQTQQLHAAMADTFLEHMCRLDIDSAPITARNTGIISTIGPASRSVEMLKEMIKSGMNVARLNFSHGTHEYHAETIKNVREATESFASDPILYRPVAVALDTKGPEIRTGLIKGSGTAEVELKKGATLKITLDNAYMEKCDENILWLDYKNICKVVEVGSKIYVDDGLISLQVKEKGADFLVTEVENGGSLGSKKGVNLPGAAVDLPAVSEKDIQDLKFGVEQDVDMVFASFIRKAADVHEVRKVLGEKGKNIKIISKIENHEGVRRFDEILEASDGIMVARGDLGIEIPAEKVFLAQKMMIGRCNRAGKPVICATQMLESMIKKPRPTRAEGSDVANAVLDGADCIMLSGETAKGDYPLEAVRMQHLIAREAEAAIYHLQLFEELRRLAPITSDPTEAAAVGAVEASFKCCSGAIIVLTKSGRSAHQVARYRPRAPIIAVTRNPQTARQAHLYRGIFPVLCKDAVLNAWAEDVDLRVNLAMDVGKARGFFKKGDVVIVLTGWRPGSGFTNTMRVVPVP
Nature of the test: ITC (much weaker than wild type). The class given is binding.

SMILES strings stand for the structures. pKd: −log10 of the molar value.

T1 sequence (P52480 whole entry): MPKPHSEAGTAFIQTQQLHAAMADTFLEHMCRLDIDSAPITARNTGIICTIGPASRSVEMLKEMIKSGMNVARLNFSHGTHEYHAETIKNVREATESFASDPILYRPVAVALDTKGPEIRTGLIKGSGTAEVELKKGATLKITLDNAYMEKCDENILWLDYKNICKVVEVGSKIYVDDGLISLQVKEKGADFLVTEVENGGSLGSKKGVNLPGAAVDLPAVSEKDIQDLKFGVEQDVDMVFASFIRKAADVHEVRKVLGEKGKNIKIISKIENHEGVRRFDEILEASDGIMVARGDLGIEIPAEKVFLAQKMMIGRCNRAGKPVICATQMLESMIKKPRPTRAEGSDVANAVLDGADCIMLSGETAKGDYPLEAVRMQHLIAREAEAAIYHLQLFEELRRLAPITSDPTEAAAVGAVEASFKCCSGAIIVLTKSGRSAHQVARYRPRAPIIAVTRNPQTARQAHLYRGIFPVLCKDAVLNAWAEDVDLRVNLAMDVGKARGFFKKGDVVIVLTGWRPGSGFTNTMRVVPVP

Turning to `CCCCCC(=O)/C=C/[C@@H]1[C@@H](C/C=C\CCCC(=O)O)[C@@H](O)C[C@H]1O` [15-keto-PGF2α], the pKd was 6.04 in test [1] and 4.42 at PKM2(C49S).
